Laboratory results published in ChEMBL document CHEMBL3992562, “Multifunctional thioxanthone derivatives with acetylcholinesterase, monoamine oxidases and β-amyloid aggregation inhibitory activities as potential agents against Alzheimer's disease” (Bioorg Med Chem, 2017).

How the values were obtained:
[1] = Antioxidant activity assessed as trolox equivalent of AAPH-induced radical scavenging activity at 5 uM incubated for 15 mins prior to APPH challenge measured every minute for 90 mins by ORAC-FL assay; type: functional
Acetylcholinesterase = Acetylcholinesterase (Electrophorus electricus, UniProt O42275); assay: Inhibition of electric eel AChE using acetylthiocholine iodide as substrate measured after 15 mins by Ellman's method
[2] = Inhibition of cupric ion-mediated amyloid beta (1 to 42) aggregation at 25 uM measured after 24 hrs by ThT fluorescence assay relative to control
[3] = biological target: T1, Amine oxidase [flavin-containing] A (Homo sapiens, UniProt P21397); assay: Inhibition of recombinant human MAO-A expressed in baculovirus infected BTI insect cells using kynuramine as substrate after 30 mins by fluorimetric method
T1 sequence (P21397 whole entry): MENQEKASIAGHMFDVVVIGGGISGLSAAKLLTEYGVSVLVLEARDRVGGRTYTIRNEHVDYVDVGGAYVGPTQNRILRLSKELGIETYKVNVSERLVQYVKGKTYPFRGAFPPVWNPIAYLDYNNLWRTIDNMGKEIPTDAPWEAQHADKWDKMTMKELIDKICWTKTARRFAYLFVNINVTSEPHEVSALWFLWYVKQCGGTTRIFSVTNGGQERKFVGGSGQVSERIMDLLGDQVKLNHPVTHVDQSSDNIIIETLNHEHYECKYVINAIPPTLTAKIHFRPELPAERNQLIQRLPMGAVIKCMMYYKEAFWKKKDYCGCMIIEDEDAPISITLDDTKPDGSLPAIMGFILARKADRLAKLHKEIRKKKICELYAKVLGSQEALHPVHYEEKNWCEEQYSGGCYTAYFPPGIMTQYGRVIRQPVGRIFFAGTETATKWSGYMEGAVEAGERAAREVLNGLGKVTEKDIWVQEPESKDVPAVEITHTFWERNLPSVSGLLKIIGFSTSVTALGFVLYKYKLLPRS

[4] = biological target: T2, Amine oxidase [flavin-containing] B (Homo sapiens, UniProt P27338); assay: Inhibition of recombinant human MAO-B expressed in baculovirus infected BTI insect cells using kynuramine as substrate after 30 mins by fluorimetric method; type: cell-based
T2 sequence (P27338 whole entry): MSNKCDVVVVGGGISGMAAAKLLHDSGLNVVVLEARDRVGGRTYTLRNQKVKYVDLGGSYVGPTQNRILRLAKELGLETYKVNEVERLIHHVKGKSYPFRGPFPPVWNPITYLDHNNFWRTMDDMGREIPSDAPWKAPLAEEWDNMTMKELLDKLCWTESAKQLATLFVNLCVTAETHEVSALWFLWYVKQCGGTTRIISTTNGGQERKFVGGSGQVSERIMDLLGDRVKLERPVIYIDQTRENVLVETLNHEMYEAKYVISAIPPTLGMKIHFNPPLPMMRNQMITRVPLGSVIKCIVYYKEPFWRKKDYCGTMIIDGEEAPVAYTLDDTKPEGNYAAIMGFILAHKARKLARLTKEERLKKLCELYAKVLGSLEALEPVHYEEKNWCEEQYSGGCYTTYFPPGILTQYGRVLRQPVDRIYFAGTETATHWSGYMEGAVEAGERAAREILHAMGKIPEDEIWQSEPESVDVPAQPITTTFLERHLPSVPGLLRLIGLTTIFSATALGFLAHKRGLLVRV

[5] = biological target: Amyloid-beta precursor protein (Homo sapiens) (UniProt P05067); assay: Inhibition of self-induced amyloid beta (1 to 42) (unknown origin) aggregation at 25 uM measured after 24 hrs by ThT fluorescence assay relative to control
[6] = system: BuChE (butyrylcholinesterase); assay: Inhibition of rat serum BuChE at 50 uM using S-butylthiocholine iodide as substrate measured after 15 mins by Ellman's method relative to control; conditions: probe S-butylthiocholine iodide
Homo sapiens = organism: Homo sapiens; assay: Selectivity index, ratio of IC50 for recombinant human MAO-A expressed in baculovirus infected BTI insect cells to IC50 for recombinant human MAO-B expressed in baculovirus infected BTI insect cells
[7] = Permeability of the compound at 100 ug/ml after 18 hrs by PAMPA; type: physicochemical; conditions: read-out: permeability

Sequence of Amyloid-beta precursor protein (Homo sapiens) (P05067 whole entry): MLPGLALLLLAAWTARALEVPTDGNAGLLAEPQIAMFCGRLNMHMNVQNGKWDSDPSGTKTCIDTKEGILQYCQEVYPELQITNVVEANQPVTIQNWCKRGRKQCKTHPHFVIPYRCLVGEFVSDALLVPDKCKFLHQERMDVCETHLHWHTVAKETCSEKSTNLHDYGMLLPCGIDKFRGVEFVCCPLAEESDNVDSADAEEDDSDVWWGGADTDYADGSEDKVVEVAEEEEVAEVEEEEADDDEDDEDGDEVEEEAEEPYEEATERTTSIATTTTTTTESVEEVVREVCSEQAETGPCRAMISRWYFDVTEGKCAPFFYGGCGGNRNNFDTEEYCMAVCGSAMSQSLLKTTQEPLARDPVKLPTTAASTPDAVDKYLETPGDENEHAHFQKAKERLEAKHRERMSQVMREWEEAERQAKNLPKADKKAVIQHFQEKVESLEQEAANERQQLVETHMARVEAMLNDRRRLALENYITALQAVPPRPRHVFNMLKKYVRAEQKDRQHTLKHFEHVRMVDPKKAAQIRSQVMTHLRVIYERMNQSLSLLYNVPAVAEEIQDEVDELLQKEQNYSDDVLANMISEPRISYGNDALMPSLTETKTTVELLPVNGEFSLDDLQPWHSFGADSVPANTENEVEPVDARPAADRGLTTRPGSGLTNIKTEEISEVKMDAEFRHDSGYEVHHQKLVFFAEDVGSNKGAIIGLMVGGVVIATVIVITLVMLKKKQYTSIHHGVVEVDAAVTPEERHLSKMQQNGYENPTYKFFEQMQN
Sequence of Acetylcholinesterase (O42275 whole entry): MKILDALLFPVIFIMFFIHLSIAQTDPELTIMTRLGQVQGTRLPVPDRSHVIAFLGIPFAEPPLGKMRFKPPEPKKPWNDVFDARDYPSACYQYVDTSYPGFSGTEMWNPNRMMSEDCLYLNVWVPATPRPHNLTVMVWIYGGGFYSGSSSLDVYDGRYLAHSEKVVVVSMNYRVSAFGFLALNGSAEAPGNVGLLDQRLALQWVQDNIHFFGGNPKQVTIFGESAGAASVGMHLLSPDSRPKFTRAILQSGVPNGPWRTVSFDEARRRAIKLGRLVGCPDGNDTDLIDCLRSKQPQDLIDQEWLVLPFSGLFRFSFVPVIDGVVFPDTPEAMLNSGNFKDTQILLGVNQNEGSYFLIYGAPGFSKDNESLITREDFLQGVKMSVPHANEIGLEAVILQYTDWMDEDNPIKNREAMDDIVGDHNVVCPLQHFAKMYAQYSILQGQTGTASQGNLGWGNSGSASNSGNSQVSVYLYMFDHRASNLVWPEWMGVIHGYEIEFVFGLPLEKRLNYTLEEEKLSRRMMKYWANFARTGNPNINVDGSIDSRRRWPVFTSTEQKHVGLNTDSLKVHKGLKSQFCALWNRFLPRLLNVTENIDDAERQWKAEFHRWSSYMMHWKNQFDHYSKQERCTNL

Row | SMILES | Activity [1] | IC50 (Acetylcholinesterase) | inhibition [2] | IC50 [3] | IC50 [4] | inhibition [5] | inhibition at 0.25 h, 50 µM [6] | Ratio IC50 (Homo sapiens) | Papp at 18 h, 100 ug/ml [7]
1 | CN(CCCCOc1cc(O)c2c(=O)c3ccccc3sc2c1)Cc1ccccc1 | 1.18 µMequiv/µM | 12.4 µM | 88.6% | 570 nM | 370 nM | 79.5% | < 5% | 1.54 | –
2 | CCN(CCCCCCOc1cc(O)c2c(=O)c3ccccc3sc2c1)Cc1ccc(N(C)C)cc1 | 1.37 µMequiv/µM | 33.8 µM | 91.3% | 1250 nM | 390 nM | 76.3% | < 5% | 3.21 | –
3 | CN(CCCOc1cc(O)c2c(=O)c3ccccc3sc2c1)Cc1ccccc1 | 0.48 µMequiv/µM | 11.2 µM | 81.1% | 16000 nM | 1730 nM | 40.5% | < 5% | 9.25 | –
4 | CN(CCCCCCOc1cc(O)c2c(=O)c3ccccc3sc2c1)Cc1ccccc1 | 0.37 µMequiv/µM | 0.32 µM | 76.8% | 570 nM | 350 nM | 47.5% | < 5% | 1.63 | –
5 | COc1ccccc1CN(C)CCCCOc1cc(O)c2c(=O)c3ccccc3sc2c1 | 1.04 µMequiv/µM | 9.16 µM | 88% | 620 nM | 590 nM | 79.9% | 5.62% | 1.05 | –
6 | COc1cc(/C=C/C(=O)CC(=O)/C=C/c2ccc(O)c(OC)c2)ccc1O | 2.43 µMequiv/µM | – | 70% | – | – | – | – | – | –
7 | O=c1c2ccccc2sc2cc(O)cc(O)c12 | 0.42 µMequiv/µM | 38.9 µM | 31.4% | 280 nM | 300 nM | 9.5% | < 5% | 0.93 | –
8 | CCN(CCCCOc1cc(O)c2c(=O)c3ccccc3sc2c1)Cc1ccccc1 | 1 µMequiv/µM | 22 µM | 82.1% | 340 nM | 270 nM | 75.8% | < 5% | 1.26 | –
9 | CCN(CCCOc1cc(O)c2c(=O)c3ccccc3sc2c1)Cc1ccc(N(C)C)cc1 | 1.38 µMequiv/µM | 17.7 µM | 85.4% | 2790 nM | 3550 nM | 64.8% | < 5% | 0.79 | –
10 | COc1ccccc1CN(C)CCCCCCOc1cc(O)c2c(=O)c3ccccc3sc2c1 | 0.66 µMequiv/µM | 4.28 µM | 86.5% | 1030 nM | 380 nM | 68% | 14.9% | 2.71 | –
11 | CCN(CCCOc1cc(O)c2c(=O)c3ccccc3sc2c1)Cc1ccccc1OC | 0.68 µMequiv/µM | 2.79 µM | 80% | 8170 nM | 1880 nM | 68.2% | 17.3% | 4.35 | –
12 | CCN(CCCCOc1ccc(-c2coc3cc(OCCCCN(CC)Cc4ccccc4OC)cc(O)c3c2=O)cc1)Cc1ccccc1OC | 0.3 µMequiv/µM | – | 77.8% | – | – | – | 20% | – | –
13 | COc1ccccc1CN(C)CCCOc1cc(O)c2c(=O)c3ccccc3sc2c1 | 0.22 µMequiv/µM | 28.7 µM | 77.8% | 6310 nM | 6090 nM | 45.2% | 30.2% | 1.04 | –
14 | CCN(CCCCOc1cc(O)c2c(=O)c3ccccc3sc2c1)Cc1ccccc1OC | 0.57 µMequiv/µM | 15.5 µM | 82% | 1020 nM | 880 nM | 89.4% | < 5% | 1.16 | –
15 | CCN(CCCOc1cc(O)c2c(=O)c3ccccc3sc2c1)Cc1ccccc1 | 0.59 µMequiv/µM | 18.4 µM | 70.9% | 13200 nM | 7130 nM | 46.9% | 31.8% | 1.85 | –
16 | CCN(CCCCCCOc1cc(O)c2c(=O)c3ccccc3sc2c1)Cc1ccccc1OC | 0.83 µMequiv/µM | 11.5 µM | 86.3% | 1300 nM | 460 nM | 78.7% | 13.9% | 2.83 | –
17 | CCN(CCCCCCOc1cc(O)c2c(=O)c3ccccc3sc2c1)Cc1ccccc1 | 0.17 µMequiv/µM | 0.58 µM | 76.4% | 1440 nM | 330 nM | 50.6% | 8.83% | 4.36 | 4.12 ×10⁻⁶ cm/s
18 | CCN(CCCOc1cc(O)c2c(=O)c3ccccc3sc2c1)Cc1ccccc1N(C)C | 0.35 µMequiv/µM | 0.25 µM | 75.7% | 5940 nM | 3730 nM | 46.9% | 22.4% | 1.59 | –
19 | CCN(CCCCOc1cc(O)c2c(=O)c3ccccc3sc2c1)Cc1ccccc1N(C)C | 0.95 µMequiv/µM | 2.88 µM | 82.1% | 1540 nM | 2020 nM | 72.1% | 30.3% | 0.76 | –
20 | CCN(CCCCOc1cc(O)c2c(=O)c3ccccc3sc2c1)Cc1ccc(N(C)C)cc1 | 1.5 µMequiv/µM | 25.4 µM | 81.9% | 1000 nM | 2200 nM | 77.1% | 7.15% | 0.45 | –
